Results on 73 compounds are retold here after ChEMBL document CHEMBL4483862, “Open-source discovery of chemical leads for next-generation chemoprotective antimalarials” (2018).

The pIC50 is −log10 of the IC50, conventionally taken in molar units. Usually IC90 stands for the concentration needed for an effect of 90%.

This assay relates to Plasmodium berghei. Description: Luciferase/luciferin-expressing antifolate-resistant parasites were used to infect a culture of HepG2 cells that were pre-incubated with compounds. Infected hepatocytes emit light due to the luciferase reaction. Assay results are presented as the percent inhibition of light emission compared to control. […]. It is filed as functional. The following applies: sporozoite; for pIC50: read-out: LUCIFERASE INFECTION ASSAY - IC50; for IC90: read-out: LUCIFERASE INFECTION ASSAY - IC90.

Each structure is given as a SMILES string. pIC50: −log10 of the molar value.

As to `CC(=O)Nc1ccc(S(=O)(=O)NCCC(=O)OCc2ccccc2F)cc1`, the pIC50 is under 5.00 and the IC90 is over 10 µM.

For `Cc1ccc(NC(=O)COc2ccc(CCO)cc2-n2nc3ccccc3n2)cc1C`, the negative logarithm of the IC50 (pIC50) is under 5.00 and the IC90 is over 10 µM.

Consider `Cc1nc(N2CCN(Cc3ccccc3)CC2)nc2c1C(=O)CC(C)C2` (stereo unspecified), for which the pIC50 is under 5.03 and the IC90 is over 9.42 µM.

On to `Cc1cc(C(C)(C)C)cc(C)c1CCNC(=O)c1ccc[n+]([O-])c1`, for which the pIC50 is under 5.00 and the IC90 was over 10 µM.

In the case of `O=C(O)c1ccc(CN2C(=O)CCC2=O)cc1`, the pIC50 was under 5.00 and the IC90 was over 10 µM.

Consider `Cc1sc2ncnc(Sc3nc4ncccn4n3)c2c1C`, for which the pIC50 is under 5.70 and the IC90 was over 2 µM.

For `COc1ccccc1-c1nnc(SCc2cc(=O)c(O)co2)n1C`, the pIC50 was under 5.00 and the IC90 was over 10 µM.

In the case of `COc1ccc(OCc2noc(CN3CCc4ccccc43)n2)cc1`, the pIC50 is under 5.70 and the concentration for an effect of 90% (IC90) is over 2 µM.

`O=C1c2ccccc2NC(c2cc(Br)cs2)N1C1CC1` (stereo unspecified): the pIC50 was under 5.00 and the IC90 was over 10 µM.

Consider `Cc1nn(CC(=O)N2c3ccccc3NC(=O)CC2C)c(=O)c(C#N)c1C` (stereo unspecified), for which the pIC50 is under 5.70 and the IC90 was over 2 µM.

Turning to `FC(F)(F)c1nnc2ccc(Oc3ccc(Cl)c4ccccc34)nn12`, the negative logarithm of the IC50 (pIC50) was under 5.00 and the IC90 was over 10 µM.

As to `Cc1cc(C(=O)OCC(=O)c2ccc[nH]2)c2c(C)noc2n1`, the negative logarithm of the IC50 (pIC50) is under 5.00 and the IC90 is over 10 µM.

As to `COc1ccc2nc(C)cc(N3CCc4c(sc(N)c4C#N)C3)c2c1`, the pIC50 is under 5.00 and the 90% effect concentration (IC90) is over 10 µM.

Turning to `CC(NCc1nc(N)nc(N(C)C)n1)c1ccccc1Cl` (stereo unspecified), the pIC50 is under 5.00 and the IC90 was over 10 µM.

As for `CCc1ccc(S(=O)(=O)Oc2ccccc2NC(C)=O)cc1`, the pIC50 is under 5.00 and the IC90 is over 10 µM.

On to `CN1CCN(S(=O)(=O)c2ccc(SCC3CCCCC3)nc2)CC1`, for which the negative logarithm of the IC50 (pIC50) was under 5.00 and the IC90 is over 10 µM.

For `CCN(CCC#N)c1ccc(/C=C2/C(=O)Nc3cc(Cl)ccc32)c(C)c1`, the pIC50 is under 5.00 and the IC90 is over 10 µM.

With `COc1ccc(-c2nc(C=C3C(=O)c4ccccc4C3=O)cs2)cc1`, the pIC50 is under 5.00 and the concentration for an effect of 90% (IC90) was over 10 µM.

As for `Clc1ccccc1CNc1ncnc2ccsc12`, the pIC50 was under 5.00 and the 90% effect concentration (IC90) was over 10 µM.

Regarding `Cc1ccc2nc(CNc3ccccc3-c3ccccc3)cc(=O)n2c1`, the pIC50 was under 5.00 and the IC90 was over 10 µM.

Regarding `CC(=O)c1c[nH]c(C(=O)OCC(=O)NCCc2ccc(C(C)C)cc2)c1`, the pIC50 is under 5.70 and the IC90 is over 2 µM.

`CCCN1C(=O)C(=O)N(CN2CCc3sccc3C2)C1=O`: the pIC50 was under 5.70 and the 90% effect concentration (IC90) was over 2 µM.

As for `Nc1nc(CN2CCN(Cc3cccc4cccnc34)CC2)nc2ccccc12`, the pIC50 is under 5.00 and the IC90 was over 10 µM.

`O=C(CN1CCN(C(=O)c2ccc(=O)n(Cc3ccccc3)n2)CC1)NC1CC1`: the pIC50 is under 5.00 and the IC90 was over 10 µM.

In the case of `O=C(c1c[nH]c2ccccc12)C(NCc1ccc(F)cc1)c1ccccc1` (stereo unspecified), the pIC50 was under 5.00 and the IC90 is over 10 µM.

Regarding `CC(=O)Nc1cc(C(=O)CSc2ncnc3sccc23)ccc1O`, the pIC50 was under 5.00 and the IC90 was over 10 µM.

For `Cc1ccsc1C(=O)OCC(=O)Nc1cc(C(C)(C)C)no1`, the negative logarithm of the IC50 (pIC50) is under 5.00 and the 90% effect concentration (IC90) is over 10 µM.

`CCNc1nnc(SC(C)C(=O)Nc2ccc(OC(F)F)cc2)s1` (stereo unspecified): the pIC50 is under 5.00 and the IC90 is over 10 µM.

With `CN1CCN(c2ccc(CNS(=O)(=O)c3cccs3)cn2)CC1`, the pIC50 is under 5.70 and the IC90 is over 2 µM.

Turning to `CC(C)(C)OC(=O)N1CCN(CN2C(=O)NC3(CCCCC3)C2=O)CC1`, the pIC50 was under 5.00 and the IC90 was over 10 µM.

As to `CN(C(=O)Cn1nnc(-c2cccc(C(F)(F)F)c2)n1)C1(C#N)CCCCC1`, the pIC50 was under 5.00 and the 90% effect concentration (IC90) was over 10 µM.

For the compound `Cc1cc(NC(=O)CCc2c(-c3ccc(F)cc3)[nH]c3ccc(F)cc23)no1`, the pIC50 is under 5.00 and the IC90 is over 10 µM.

Regarding `CC(C)C(=O)NCc1coc(-c2cccs2)n1`, the pIC50 was under 5.00 and the IC90 was over 10 µM.

Regarding `CCOc1ccc(C(=O)COC(=O)c2c3ccccc3cc3ccccc23)cc1`, the pIC50 was under 5.00 and the IC90 was over 10 µM.

Regarding `Cc1ccc2c(c1)CCCN2CC(=O)Nc1sccc1C(N)=O`, the pIC50 is under 5.00 and the 90% effect concentration (IC90) is over 10 µM.

Consider `O=c1cc(CNc2ccccc2N2CCCCC2)nc2sccn12`, for which the pIC50 is 5.04 and the IC90 is over 10 µM.

With `O=c1c2sccc2ncn1Cc1cc(-c2cccs2)on1`, the pIC50 was under 5.00 and the IC90 was over 10 µM.

In the case of `c1ccc(C(Sc2ncnc3sccc23)c2ccccc2)cc1`, the pIC50 was under 5.00 and the IC90 is over 10 µM.

Consider `O=C(OC(C(=O)N1CCOCC1)c1ccccc1)c1cccc(-n2cccc2)c1` (stereo unspecified), for which the pIC50 is under 5.70 and the IC90 is over 2 µM.

Turning to `CC(C)n1ncc2c(C(=O)Nc3ccn(C)n3)cc(-c3cccs3)nc21`, the pIC50 is under 5.00 and the IC90 was over 10 µM.

As to `COCc1c(C(=O)Nc2nnc(C3CCCCC3)s2)oc2ccccc12`, the pIC50 is under 5.00 and the IC90 was over 10 µM.

With `Cc1c(Cl)cccc1NC(=O)CNC(=O)CN1CCc2ccccc2C1`, the negative logarithm of the IC50 (pIC50) is under 5.00 and the IC90 is over 10 µM.

As to `Cc1cn2c(/C=C/c3nc4cc(Cl)ccc4o3)c(C)nc2s1`, the pIC50 was under 5.00 and the IC90 is over 10 µM.

Take `CC(NC(=O)C1CCCN(C(=O)OC(C)(C)C)C1)c1ccc(-n2ccnc2)cc1` (stereo unspecified): the pIC50 was under 5.70 and the IC90 was over 2 µM.

Regarding `Cc1ccccc1COC(=O)C1(NC(=O)NCc2ccccc2)CCCC1`, the pIC50 is under 5.00 and the IC90 was over 10 µM.

On to `CCn1nnnc1Sc1ncnc2scc(-c3ccc(C)cc3)c12`, for which the negative-log IC50 (pIC50) is under 5.00 and the IC90 is over 10 µM.

For the compound `O=C(CCc1nc2ccccc2n(CCc2ccccc2)c1=O)N1CCC1`, the pIC50 was under 5.00 and the IC90 was over 10 µM.

Consider `Cc1ccc(C(=O)CN2C(=O)C(=O)N(C)C2=O)cc1C`, for which the negative logarithm of the IC50 (pIC50) is under 5.00 and the IC90 is over 10 µM.

With `O=c1[nH]c2ccc(-c3csc(-c4ccsc4)n3)cc2[nH]1`, the pIC50 is 5.37 and the IC90 was over 10 µM.

As for `COc1ccc(CCNC(=O)COC(=O)c2sc(C)nc2C)cc1`, the pIC50 was under 5.00 and the IC90 is over 10 µM.

Turning to `CCN(CC)Cc1ccccc1CNC(=O)c1cccc2ccccc12`, the pIC50 was under 5.00 and the IC90 is over 10 µM.

For the compound `COc1cccc2sc(NC(=O)C3CCN(C(C)=O)CC3)nc12`, the pIC50 is under 5.00 and the IC90 is over 10 µM.

In the case of `C=CCc1cc(C(=O)Nc2ccc3oc(C)nc3c2)cc(OC)c1OC`, the pIC50 is 5.37 and the IC90 is over 10 µM.

For the compound `Cc1ccsc1CN(C)Cc1nnc(C(=O)Nc2ccc(Cl)cc2)s1`, the pIC50 is under 5.00 and the IC90 is over 10 µM.

On to `Cc1cc2ccccc2n1CC(=O)NCc1ccc(NC(=O)c2ccco2)cc1`, for which the pIC50 is 5.24 and the IC90 is over 10 µM.

As for `CCc1sc(C(=O)Nc2nc(-c3ccc(CNC(C)=O)cc3)cs2)cc1C`, the pIC50 was under 5.00 and the IC90 was over 10 µM.

Consider `NC(=O)N1CC=C(c2ccc(Oc3ncnc4sccc34)cc2)CC1`, for which the pIC50 is under 5.70 and the IC90 was over 2 µM.

On to `O=C(Nc1ccc(Cl)c(C(F)(F)F)c1)c1[nH]nc2ccccc12`, for which the negative logarithm of the IC50 (pIC50) was under 5.00 and the IC90 is over 10 µM.

In the case of `COc1ccc(CNC(=O)c2ccc3c(c2)NC(=O)C(C)S3)cc1OC` (stereo unspecified), the pIC50 is under 5.00 and the IC90 is over 10 µM.

Turning to `CC(C(=O)Nc1cccc(C#Cc2cccs2)c1)n1cnc2ccccc21` (stereo unspecified), the pIC50 was under 5.00 and the IC90 is over 10 µM.

On to `Cc1cc(C)n2nc(SC(C)C(=O)N3CCCc4ccccc43)nc2n1` (stereo unspecified), for which the pIC50 is under 5.70 and the IC90 is over 2 µM.

With `O=C(Nc1nc2ccccc2[nH]1)C(Sc1ccccc1)c1ccccc1` (stereo unspecified), the negative logarithm of the IC50 (pIC50) is under 5.00 and the concentration for an effect of 90% (IC90) is over 10 µM.

Consider `Cc1ccc(C)c(OCCN2CCN(CC(=O)Nc3c(C)cccc3C)CC2)c1`, for which the negative-log IC50 (pIC50) is under 5.00 and the IC90 is over 10 µM.

Consider `O=c1cc(CN2CCCc3ccc(C(F)(F)F)cc32)nc2sccn12`, for which the pIC50 is under 5.00 and the IC90 was over 10 µM.

With `Cc1[nH]c2ccc(C(=O)Nc3ccc(-n4cnnn4)cc3)cc2c1C`, the pIC50 was under 5.00 and the IC90 is over 10 µM.

Consider `COc1ccc2oc(C(=O)Nc3nnc(C(C)C)s3)c(C)c2c1`, for which the pIC50 was 5.35 and the IC90 was over 10 µM.

Turning to `NS(=O)(=O)c1ccc2c(c1)CCN2Cc1ccc(Cl)cc1`, the pIC50 was under 5.70 and the 90% effect concentration (IC90) was over 2 µM.

On to `CCC(C)(C)NC(=O)CSc1nnc(/C=C/c2ccccc2C)[nH]1`, for which the pIC50 was under 5.00 and the IC90 was over 10 µM.

For the compound `COCCNC(=O)CN(C)S(=O)(=O)c1ccc2c(c1)CCC(=O)N2`, the pIC50 is under 5.00 and the IC90 was over 10 µM.

On to `Cc1nc(SCc2nc(-c3cccs3)no2)c(C#N)c(C)c1C`, for which the pIC50 is 7.53 and the 90% effect concentration (IC90) came out at 0.683 µM.

For the compound `CC(OC(=O)c1n[nH]c(=O)c2ccccc12)C(=O)N(CCC#N)c1ccccc1` (stereo unspecified), the pIC50 was under 5.00 and the IC90 is over 10 µM.

`O=C(Nc1nc2c(s1)CCc1ccccc1-2)c1cccc(-n2cnnn2)c1`: the pIC50 was under 5.00 and the IC90 was over 10 µM.

On to `CN1C(=O)N(CN2CCN(c3ccccn3)CC2)C(=O)C12CCCCC2`, for which the pIC50 is under 5.00 and the IC90 was over 10 µM.
